In patent US4159328A, “Tetrahydro-1,3,5-thiadiazin-4-one derivative” (Nihon Nohyaku Co., Ltd., priority 1977, dated 1979):

Experiments:
Format in all cases: in vivo
[1] = tested on: larvae of green rice leafhopper (Nephotettix cincticeps Uhler); assay: Test Example 5: activity against larvae of green rice leafhopper; conditions: 168 h, 400 ppm, second-instar larvae, 25° C., seven days after treatment, read-out: Mortality
Procedure: Activity against larvae of green rice leafhopper (Nephotettix cincticeps Uhler).
Testing method: Five rice seedlings of the 1.5 leaf age were dipped in a test composition of 400 ppm concentration for 30 seconds. After air-drying, the seedlings were placed in a glass tube containing 1 ml of water and infested with five second-instar larvae of green rice leafhopper. The glass tube was left standing in a constant temperature cabinet at 25° C. Seven days after the treatment, dead-and-survivalwas inspected to calculate the mortality (3-replication test).

[2] = tested on: larvae of house mosquito (Culex pipiens pallens Coquillett); assay: Test Example 6: insecticidal activity to larvae of house mosquito; conditions: 120 h
Procedure: Insecticidal activity to larvae of house mosquito (Culex pipiens pallens Coquillett).
Test method: In a 200-ml beaker, was placed together with a feed 100 ml of a test composition diluted with deionized water to 10 ppm concentration. The test composition was infested with 20 first-instar larvae of house mosquito and the beaker was covered with a sheet of Japanese paper. The beaker was kept in a constant temperature cabinet at 25° C. Five days after the treatment, the dead-and-survival was inspected to calculate the mortality.

[3] = tested on: two-spotted spider mite (Tetranychus urticae Koch); assay: Test Example 3: activity to two-spotted spider mite; conditions: 120 h, 1,000 ppm, 5 days after treatment
Text: Activity to two-spotted spider mite (Tetranychus urticae Koch).
Testing method: Two-spotted spider mites were set free on the pot-planted soybean in a greenhouse. On the next day, a test composition of 1,000 ppm concentration was sprayed over the soybean by means of a spray gun. Two days or five days after the treatment, dead-and-survival was inspected to calculate the mortality.

[4] = tested on: larvae of brown planthopper (Nilaparvata lugens Stahl); assay: Test Example 1: insecticidal activity against larvae of brown planthopper; conditions: 120 h, third-instar larvae, 25° C., 5 days after treatment
Procedure: Insecticidal activity against larvae of brown planthopper (Nilaparvata lugens Stahl).
Testing method: Five rice seedlings of the 1.5 leaf age were dipped in a test composition of 400 ppm concentration for 30 seconds. After air-drying, the seedlings were placed in a glass tube containing 1 ml of water and infested with five third-instar larvae of brown planthopper. The glass tube was left standing in a constant temperature cabinet at 25° C. and 5 or 7 days after the treatment, dead-and-survival was observed. Mortality was calculated from the results of 3-replication test.

Row | SMILES | mortality at 400 ppm [1] [%] | mortality at 10 ppm [2] [%] | mortality at 1000 ppm [3] [%] | mortality at 400 ppm [4] [%]
1 | CCC(C)N=C1SCN(c2ccccc2)C(=O)N1CC (stereo not shown) [Compound 130] | 100 | – | – | –
2 | CCN1C(=O)N(c2ccc(F)cc2)CSC1=NC(C)(C)C [Compound 280] | – | 90 | 80 | 100
3 | CN=C1SCN(c2ccc(Cl)cc2)C(=O)N1C [Compound 188, 2-Methylimino-3-methyl-5-(p-chlorophenyl)tetrahydro-1,3,5-thiadiazin-4-one] | 100 | 100 | 90 | 100
4 | Cc1ccccc1N1CSC(=NC2CCCCC2)N(C2CCCCC2)C1=O [Compound 307, 2-cyclohexylimino-3-cyclohexyl-5-(o-tolyl)-tetrahydro-1,3,5-thiadiazin-4-one] | – | 100 | 70 | 70
5 | CC(C)N=C1SCN(c2cccc(C(F)(F)F)c2)C(=O)N1C [Compound 259] | – | 100 | 100 | 60
6 | Cc1ccccc1N1CSC(=NCc2ccccc2)N(Cc2ccccc2)C1=O [Compound 308] | – | 100 | 100 | 60
7 | CC(C)N1C(=O)N(c2ccccc2Cl)CSC1=NC(C)(C)CC(C)(C)C [Compound 247] | – | 100 | 70 | 90
8 | CCC(C)N1C(=O)N(c2cccc(C(F)(F)F)c2)CSC1=NC(C)(C)C (stereo not shown) [Compound 274] | – | 100 | 100 | 100
9 | C=CCN1C(=O)N(c2ccc(C)cc2)CSC1=NC(C)C [Compound 315] | – | 100 | 100 | 100
10 | CC(C)N1C(=O)N(c2cccc(C(F)(F)F)c2)CSC1=NC(C)(C)C [Compound 270] | – | 100 | 70 | 60
11 | CC(C)N=C1SCN(c2ccc(Br)cc2)C(=O)N1C(C)C [Compound 293, 2-Isopropylimino-3-isopropyl-5-(p-bromophenyl)-tetrahydro-1,3,5-thiadiazin-4-one] | – | – | 100 | 100
12 | CCN1C(=O)N(c2ccc(C)cc2)CSC1=NC(C)(C)C [Compound 312] | – | 100 | 100 | 100
13 | CC(C)Oc1ccc(N2CSC(=NC(C)(C)C)N(C(C)C)C2=O)cc1 [Compound 373] | – | – | 100 | 80
14 | CCCCCCN1C(=O)N(c2ccccc2C)CSC1=NC(C)C [Compound 304] | – | – | 100 | 100
15 | C=CCN1C(=O)N(c2ccccc2CC)CSC1=NC(C)C [Compound 336] | – | – | 100 | 100
16 | CCOc1ccc(N2CSC(=NC(C)(C)C)N(C(C)C)C2=O)cc1 [Compound 367] | – | – | 100 | 80
17 | CC(C)N=C1SCN(c2cccc(Cl)c2)C(=O)N1C1CCCC1 [Compound 233] | – | – | 100 | 100
18 | CC(C)N=C1SCN(c2ccc(Cl)c(Cl)c2)C(=O)N1C(C)C [Compound 415] | – | – | 100 | 100
19 | Cc1ccc(N2CSC(=NC(C)C)N(Cc3ccccc3)C2=O)cc1 [Compound 320] | – | 70 | 70 | 100
20 | CC(C)N=C1SCN(c2cccc(C(F)(F)F)c2)C(=O)N1C(C)C [Compound 265, 2-Isopropylimino-3-isopropyl-5-(m-trifluoromethylphenyl)-tetrahydro-1,3,5-thiadiazin-4-one] | – | 100 | – | –
21 | Cc1ccccc1N1CSC(=NC(C)C)N(C)C1=O [Compound 297] | – | – | 100 | 100
22 | CCC(C)N=C1SCN(c2cccc(C(F)(F)F)c2)C(=O)N1C(C)C (stereo not shown) [Compound 269] | – | 100 | – | 80
23 | CN=C1SCN(c2ccc(C)cc2C)C(=O)N1C [Compound 376] | – | – | 100 | 60
24 | CC(C)N=C1SCN(c2cccc(Cl)c2)C(=O)N1C(C)c1ccccc1 (stereo not shown) [Compound 237] | – | – | 100 | 100

Row | SMILES | mortality at 400 ppm [1] [%] | mortality at 10 ppm [2] [%] | mortality at 1000 ppm [3] [%] | mortality at 400 ppm [4] [%]
25 | Cc1ccccc1N1CSC(=NC(C)C)N(C(C)C)C1=O [Compound 301, 2-Isopropylimino-3-isopropyl-5-(o-tolyl)-tetrahydro-1,3,5-thiadiazin-4-one] | – | 90 | 100 | 100
26 | COCCCN1C(=O)N(c2ccccc2Cl)CSC1=NC(C)(C)C [Compound 258] | – | – | 100 | 100
27 | CCN=C1SCN(c2ccccc2)C(=O)N1CC [Compound 125] | – | 80 | – | –
28 | CC(C)N1C(=O)N(c2cc(Cl)cc(Cl)c2)CSC1=NC(C)(C)CC(C)(C)C [Compound 409] | – | – | 100 | 60
29 | CCC(C)N1C(=O)N(c2ccc(Br)cc2)CSC1=NC(C)(C)C (stereo not shown) [Compound 295] | – | – | 100 | 100
30 | Cc1ccc(N2CSC(=NCc3ccccc3)N(Cc3ccccc3)C2=O)cc1 [Compound 321, 2-Benzylimino-3-benzyl-5-(p-tolyl)-tetrahydro-1,3,5-thiadiazin-4-one] | – | 70 | 70 | 85
31 | Cc1ccc(N2CSC(=NC(C)C)N(C(C)C)C2=O)c(C)c1 [Compound 378, 2-isopropylimino-3-isopropyl-5-(2,4-dimethylphenyl)-tetrahydro-1,3,5-thiadiazin-4-one] | – | – | 100 | 100
32 | CC(C)N1C(=O)N(c2ccc(Cl)c(Cl)c2)CSC1=NC(C)(C)C [Compound 416, 2-t-Butylimino-3-isopropyl-5-(3,4-dichlorophenyl)-tetrahydro-1,3,5-thiadiazin-4-one] | – | – | 100 | 100
33 | CCN1C(=O)N(c2ccccc2Cl)CSC1=NC(C)(C)C [Compound 241] | – | – | 70 | 100
34 | Cc1cccc(C)c1N1CSC(=NC(C)(C)C)N(C(C)C)C1=O [Compound 388, 2-t-butylimino-3-isopropyl-5-(2,6-dimethylphenyl)tetrahydro-1,3,5-thiadiazin-4-one] | – | – | 100 | 100
35 | CC(C)N=C1SCN(c2cc(Cl)cc(Cl)c2)C(=O)N1C(C)C [Compound 406] | – | – | 60 | 80
36 | CCCN1C(=O)N(c2ccc(C)cc2)CSC1=NC(C)(C)C [Compound 317] | – | 100 | 100 | 100
37 | CC(C)N=C1SCN(c2cccc(Cl)c2Cl)C(=O)N1C(C)C [Compound 402] | – | – | 100 | 80
38 | CCc1ccccc1N1CSC(=NC(C)C)N(C(C)C)C1=O [Compound 337] | – | – | 100 | 100
39 | CCC(C)N1C(=O)N(c2cc(Cl)ccc2Cl)CSC1=NC(C)(C)C (stereo not shown) [Compound 428] | – | – | 100 | 100
40 | CC(C)N1C(=O)N(c2cc(Cl)cc(Cl)c2)CSC1=NC(C)(C)C [Compound 407] | – | – | 100 | 100
41 | CCC(C)N1C(=O)N(c2ccc(OC(C)C)cc2)CSC1=NC(C)(C)C (stereo not shown) [Compound 374, 2-t-butylimino-3-s-butyl-5-(p-isopropoxyphenyl)-tetrahydro-1,3,5-thiadiazin-4-one] | – | – | 100 | 80
42 | Cc1ccccc1N1CSC(=NC2CCCCC2)N(C(C)C)C1=O [Compound 305] | – | – | 70 | 95
43 | CC(C)N=C1SCN(c2ccc(OC(C)C)cc2)C(=O)N1C(C)C [Compound 372, 2-isopropylimino-3-isopropyl-5-(p-isopropoxyphenyl)-tetrahydro-1,3,5-thiadiazin-4-one] | – | – | 100 | 60
44 | Cc1cc(Cl)ccc1N1CSC(=NC(C)(C)C)N(C(C)C)C1=O [Compound 387, 2-t-butylimino-3-isopropyl-5-(2-methyl-4-chlorophenyl)-tetrahydro-1,3,5-thiadiazin-4-one] | – | – | 100 | 100
45 | CCCN1C(=O)N(c2ccc(OC)cc2)CSC1=NC1CCCCC1 [Compound 354] | – | – | 100 | 100
46 | CCC(C)N1C(=O)N(c2ccc(Cl)cc2Cl)CSC1=NC(C)(C)C (stereo not shown) [Compound 401] | – | – | 70 | 100
47 | C=CCN1C(=O)N(c2ccccc2Cl)CSC1=NC(C)C [Compound 242] | – | – | 70 | 100
